Experimental data taken from US5629298A, “Adenosine as a positive inotrop in the compromised heart” (University of Massachusetts Medical Center, priority 1995, dated 1997).
Read-outs that look alike come from different tables or passages of the source.

Test system: rat ventricular myocytes
Experiment: Contractile function of individual ventricular myocytes (line scan camera edge detection, paced at 0.5 Hz)
Type: cell-based
Settings: for inhibition at 0.2 µM / activation at 0.2 µM: ISO at 0.2 μM; for +dL/dtmax, maximal rate of shortening / -dL/dtmax, maximal rate of relaxation / DS, duration of shortening / LC, maximum length change (shortening) with contraction / TPS, time-to-peak shortening / TR, time to 75% relaxation: mean ± SE
Description: Primary cultures of adult rat ventricular myocytes were prepared essentially according to previously described methods (Romano et al., Am. J. Physiol. 257:H1088 (1989)). Two male Sprague-Dawley rats (Charles River, Wilmington, Mass. or Harlan, Indianapolis, Ind.) were decapitated, and the hearts were rapidly excised and constant pressure (70 cm H2) and nonrecirculated) perfused for 10 minutes through the aortas with filtered (0.45 μm membrane filter) perfusing solution (NaCl, 118 mM; glucose, 10 mM; NaHCO3 25 mM; KCl, 4.69 mM; MgSO4 1.18 mM; and KH2 PO4, 1.18 mM; (pH 7.4)), to which […] was added, at 37° C. After equilibration, the hearts were constant pressure perfused with fresh physiological saline ("PS") containing no added Ca^2+ until spontaneous contractions ceased (i.e., ~30 seconds). The hearts were then perfused for 4-10 minutes in a nonrecirculating manner with PS containing 0.73 mg/ml collagenase, 0.16 mg/ml hyaluronidase, 1 mg/ml recrystallized bovine serum albumin ("BSA") and 48.4 μM Ca^2+ at a rate of 3-4 ml/min/heart. Ventricles, free of atria, were removed from the perfusion system, cut into 8 pieces and placed in a 50 ml Erlenmeyer flask with 5 ml of PS containing 0.73 mg/ml collagenase, 0.16 mg/ml hyaluronidase, 2.5 mg/ml BSA, and 50 μM Ca^2+ (incubation solution). The flask was gently shaken (40 cycles/min) in a reciprocating water bath with continuous gassing (95% O2, 5% CO2) for 7 minutes at 37° C. The incubation solution was aspirated and this shaking procedure was repeated with fresh incubation solution 3-5 times depending on the likelihood that the tissue was ready to dissociate. After the final incubation period, the solution was aspirated and replaced with 10 ml of fresh incubation solution. The flask was then shaken rapidly (120 cycles/min) for 10 minutes with gassing to dissociate the myocytes. The flask contents were filtered through a 250 μm nylon mesh into a 50 ml polypropylene centrifuge tube, to which 40 ml of PS containing 5.95 mg/ml BSA and 99.7 μm Ca^2+ (wash solution) was gradually added.
The myocytes were allowed to settle for 15 minutes, and the upper two thirds of the wash solution was aspirated. Upon the addition of 30-35 ml of wash solution, this settling step was repeated. The wash solution was aspirated and the myocyte pellet was resuspended in 10 ml of minimum essential medium ("MEM"). The myocyte suspension was allowed to settle for 5 minutes and then brought to a final volume of 22 ml with MEM. Two milliliters of the myocyte suspension was seeded onto each of 60 mm culture dishes containing 2 ml of MEM.
The contractile function of individual myocytes was assessed by dispersing 50-100 cells in a 506 μl myocyte chamber (11×23×2 mm deep). The chamber (FIG. 1) was continuously suffused (850 μl/min) with fresh suffusion solution ("SS") in mM: 136.4 NaCl, 4.7 KCl, 1.0 CaCl2, 10 hydroxyethylpiperzine-ethanesulfonicacid (HEPES), 1.0 NaHCO3, 1.2 MgSO4, 1.2 KH2 PO4, 10 glucose, 0.6 ascorbate, 1.0 pyruvate) at 20° C. The chamber was mounted on an inverted microscope stage and contained platinum wire electrodes for initiating myocyte contraction at 0.5 Hz (voltage 10% above threshold for 5 msec duration).
The image of the myocyte was projected via an inverted microscope at 300× onto a line scan camera (Fairchild, Model 1600R) containing a linear array (1×3456) of photodiodes. When aligned with the longitudinal axis of the cell the camera detected the movement of the 2 ends of the myocyte upon contraction (shortening and relengthening). […] When the myocyte was transilluminated, both ends of the cell were easily discriminated. Myocyte length and length change with respect to time for a single contraction was measured by determining the pixels in which the appropriate transitions between light and dark occurred. The line scan camera was calibrated with a stage micrometer scaled in 10 μm divisions. The signals from the camera were directed to a Hewlett Packard computer (Model Vectra RS/20C). […]

[1] = ISO at 0.1 μM in the presence of 1 μM PIA
[2] = Rattus norvegicus, Ventricular myocyte, read-out: increase in +dL/dtmax
[3] = Rattus norvegicus, Ventricular myocyte, read-out: increase in LC
[4] = Table 2, 0.2 μM ISO, 2 μM PIA, 0.2 μM DPCPX added sequentially every 8-10 min, maximum responses, N = 6
[5] = Rattus norvegicus, Ventricular myocyte, read-out: increase in TPS
[6] = Rattus norvegicus, Ventricular myocyte, read-out: increase in TR
[7] = Table 4, CGS-21680 10^-4 M, cumulative dose-response, every 10 min, N = 6
[8] = Table 4, CGS-21680 10^-5 M, cumulative dose-response, every 10 min, N = 6
[9] = Table 4, CGS-21680 10^-6 M, cumulative dose-response, every 10 min, N = 9
[10] = Table 4, CGS-21680 10^-7 M, cumulative dose-response, every 10 min, N = 9
[11] = Table 4, CGS-21680 10^-8 M, cumulative dose-response, every 10 min, N = 8
[12] = Table 5, CGS-21680 and/or CGS-15943 at 10^-5 M, 10 min, N = 6
[13] = 100 μM adenosine administered together with 0.2 μM DPCPX
[14] = Table 6, 10^-5 M SHA-082, 10^-5 M NECA, 10^-4 M adenosine, 2 × 10^-7 M DPCPX, 10^-5 M CGS-15943, N = 6

CC(C)NCC(O)c1ccc(O)c(O)c1 (stereo not shown) [ISO, isoproterenol]
decrease in TR [1]: 10%
increase in +dL/dtmax [1]: 70%
increase in -dL/dtmax [1]: 93%
increase in LC [1]: 44%
inhibition at 0.2 µM (Rattus norvegicus, Ventricular myocyte, read-out: decrease in DS): 30%
inhibition at 0.2 µM (Rattus norvegicus, Ventricular myocyte, read-out: decrease in TPS): 14%
inhibition at 0.2 µM (Rattus norvegicus, Ventricular myocyte, read-out: decrease in TR): 39%
activation at 0.2 µM [2]: 63%
activation at 0.2 µM (Rattus norvegicus, Ventricular myocyte, read-out: increase in -dL/dtmax): 100%
activation at 0.2 µM [3]: 61%
+dL/dtmax, maximal rate of shortening [4]: 260 ± 13 μm/msec
-dL/dtmax, maximal rate of relaxation [4]: 180 ± 17 μm/msec
DS, duration of shortening [4]: 263 ± 16 ms
LC, maximum length change (shortening) with contraction [4]: 29 ± 2 μm
TPS, time-to-peak shortening [4]: 103 ± 4 ms
TR, time to 75% relaxation [4]: 210 ± 8 ms

CCNC(=O)[C@H]1O[C@@H](n2cnc3c(N)nc(NCCc4ccc(CCC(=O)O)cc4)nc32)[C@H](O)[C@@H]1O [CGS-21680, 2-p-(2-carboxy-ethyl)phenethyl-amino-5'-N-ethylcarboxamido-adenosine]
effect on -dL/dtmax (CGS-21680, Table 4 concentrations): did not affect
contractility variables compared to 1 μM CGS-21680 in the absence of DPCPX (CGS-21680 at 1 μM in the presence of 0.2 μM DPCPX): no further increases
EC50 (Rattus norvegicus, Ventricular myocyte, read-out: EC50 for +dL/dtmax): 0.0132 ± 0.0056 µM
EC50 (Rattus norvegicus, Ventricular myocyte, read-out: EC50 for DS): 0.026 ± 0.0054 µM
EC50 (Rattus norvegicus, Ventricular myocyte, read-out: EC50 for LC): 0.0061 ± 0.002 µM
EC50 (Rattus norvegicus, Ventricular myocyte, read-out: EC50 for TPS): 0.0482 ± 0.0067 µM
EC50 (Rattus norvegicus, Ventricular myocyte, read-out: EC50 for TR): 0.0289 ± 0.0087 µM
activation at 0.1 µM [2]: 27%
activation at 0.1 µM (Rattus norvegicus, Ventricular myocyte, read-out: increase in DS): 32%
activation at 0.1 µM [3]: 28%
activation at 0.01 µM [5]: 11%
activation at 0.1 µM [5]: 30%
activation at 0.01 µM [6]: 12%
activation at 0.1 µM [6]: 22%
+dL/dtmax, maximal rate of shortening [7]: 158 ± 14 μm/msec
-dL/dtmax, maximal rate of relaxation [7]: 108 ± 16 μm/msec
DS, duration of shortening [7]: 404 ± 17 ms
LC, maximum length change (shortening) with contraction [7]: 22 ± 2 μm
TPS, time-to-peak shortening [7]: 156 ± 3 ms
TR, time to 75% relaxation [7]: 322 ± 12 ms
+dL/dtmax, maximal rate of shortening [8]: 187 ± 13 μm/msec
-dL/dtmax, maximal rate of relaxation [8]: 127 ± 13 μm/msec
DS, duration of shortening [8]: 460 ± 18 ms
LC, maximum length change (shortening) with contraction [8]: 26 ± 3 μm
TPS, time-to-peak shortening [8]: 192 ± 4 ms
TR, time to 75% relaxation [8]: 397 ± 14 ms
+dL/dtmax, maximal rate of shortening [9]: 188 ± 11 μm/msec
-dL/dtmax, maximal rate of relaxation [9]: 121 ± 15 μm/msec
DS, duration of shortening [9]: 458 ± 12 ms
LC, maximum length change (shortening) with contraction [9]: 24 ± 2 μm
TPS, time-to-peak shortening [9]: 183 ± 5 ms
TR, time to 75% relaxation [9]: 390 ± 13 ms
+dL/dtmax, maximal rate of shortening [10]: 183 ± 14 μm/msec
-dL/dtmax, maximal rate of relaxation [10]: 126 ± 12 μm/msec
DS, duration of shortening [10]: 431 ± 14 ms
LC, maximum length change (shortening) with contraction [10]: 23 ± 2 μm
TPS, time-to-peak shortening [10]: 169 ± 3 ms
TR, time to 75% relaxation [10]: 361 ± 12 ms
+dL/dtmax, maximal rate of shortening [11]: 162 ± 13 μm/msec
-dL/dtmax, maximal rate of relaxation [11]: 125 ± 11 μm/msec
DS, duration of shortening [11]: 363 ± 15 ms
LC, maximum length change (shortening) with contraction [11]: 22 ± 2 μm
TPS, time-to-peak shortening [11]: 144 ± 4 ms
TR, time to 75% relaxation [11]: 334 ± 10 ms
+dL/dtmax, maximal rate of shortening [12]: 192 ± 11 μm/msec
-dL/dtmax, maximal rate of relaxation [12]: 122 ± 12 μm/msec
DS, duration of shortening [12]: 486 ± 15 ms
LC, maximum length change (shortening) with contraction [12]: 25 ± 2 μm
TPS, time-to-peak shortening [12]: 190 ± 4 ms
TR, time to 75% relaxation [12]: 392 ± 13 ms
EC50 (read-out: EC50 for the contractile variables (length change, duration of shortening, time to peak shortening, time to 75% relaxation, +dL/dtmax), range over the five variables): 0.006 to 0.048 µM

Nc1ncnc2c1ncn2[C@@H]1O[C@H](CO)[C@@H](O)[C@H]1O [adenosine]
increase in +dL/dtmax [13]: 29%
increase in DS [13]: 20%
increase in LC [13]: 35%
increase in TPS [13]: 27%
increase in TR [13]: 37%
effect on myocyte contractility when administered alone (100 μM adenosine or 0.2 μM DPCPX): without effect
+dL/dtmax, maximal rate of shortening [14]: 180 ± 10 μm/msec
-dL/dtmax, maximal rate of relaxation [14]: 151 ± 10 μm/msec
DS, duration of shortening [14]: 293 ± 16 ms
LC, maximum length change (shortening) with contraction [14]: 16 ± 1 μm
TPS, time-to-peak shortening [14]: 120 ± 4 ms
TR, time to 75% relaxation [14]: 281 ± 12 ms
